The test system of this test is E coli (ATCC 25922, MRI EC 13) and Pseudomonas aeruginosa (ATCC 9027, MRI Ps 10). Nature of the test: Example 4 summary of the 62 test samples (both cultures pooled). Type of test: cell-based. Particulars: aqueous mixtures of up to 20% v/v; Example 4 text summary. The method, then: Freshly cultivated cultures of E coli (ATCC 25922, MRI EC 13) and Pseudomonas aeruginosa (ATCC 9027, MRI Ps 10) were suspended in MHB (Mueller-Hinton Broth) nutrient broth at 10^8 cfu/ml (colony-forming units per milliliter), diluted about 1:10 in peptone nutrient broth to about 10^7 cfu/ml. About 1 ml of each of the diluted cultures was added to one each of 9 ml of the corresponding test solutions described below for 5.0 minutes and then diluted in two steps of 1:10 per step. 100 microliters of such diluted culture was then plated onto a conventional nutrient agar plate. Nutrient agar plates were incubated by conventional methods and the number of colonies present on each plate were counted. Positive controls combined freshly cultivated cultures above described with peptone broth were included in each test group and numbers of colonies in control plates were used as a reference.
Now referring to Table 4, the results of combining each test solution as described above with each of the E coli (ATCC 25922, MRI EC 13) and Pseudomonas aeruginosa (ATCC 9027, MRI Ps 10) cultures are summarized using the following quantitative nomenclature: […]

On to `CO` [methanol], for which the “effectiveness in reducing microorganisms” value is listed as “do not appear to be effective”.

In the case of `CCO` [ethanol], the “effectiveness in reducing microorganisms” value was “do not appear to be effective”.

(Values after patent US20090054529A1, “Flow Path Conditioner System” (priority 2005, published 2009).)
